Results published in PubChem BioAssay (NCI).
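48-hour exposure; five concentrations; linearly interpolated endpoints. The concentration for full growth arrest is given as TGI.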

Tests used:
Experiment in all cases: NCI tumour cell line growth inhibition, 48 h
OVCAR-5 ovarian = tested on: OVCAR-5 ovarian
KM12 colon = tested on: KM12 colon
ACHN renal = tested on: ACHN renal
RPMI-8226 leukemia = tested on: RPMI-8226 leukemia
HCC-2998 colon = tested on: HCC-2998 colon
OVCAR-4 ovarian = tested on: OVCAR-4 ovarian
UO-31 renal = tested on: UO-31 renal
SN12C renal = tested on: SN12C renal
M14 melanoma = tested on: M14 melanoma
MCF7 breast = tested on: MCF7 breast

| Structure (SMILES) | TGI (OVCAR-5 ovarian) [µM] | TGI (KM12 colon) [µM] | TGI (ACHN renal) [µM] | TGI (RPMI-8226 leukemia) [µM] | TGI (HCC-2998 colon) [µM] | TGI (OVCAR-4 ovarian) [µM] | TGI (UO-31 renal) [µM] | TGI (SN12C renal) [µM] | TGI (M14 melanoma) [µM] | TGI (MCF7 breast) [µM] |
| --- | --- | --- | --- | --- | --- | --- | --- | --- | --- | --- |
| N#CCCn1[nH]c(=O)c(Cl)c(Cl)c1=O | 32.8 | 32.1 | 30.7 | 37.5 | 26 | 32 | 34.7 | 32.5 |  |  |
| O=[N+]([O-])c1ccc(C2=Nc3ccccc3S(=O)C(c3ccccc3)C2)cc1 (stereo not given) | 92.8 | 41.3 | 44.2 | 29.6 | 34.9 | 42 | 32.2 | 53.7 | 42 |  |
| CC(C)OC(=O)c1ccc(NCc2cc(O)ccc2O)cc1 | 15.9 | 12.5 | 13.5 |  | 28.6 | 18.7 | 2.91 | 7.3 | 22.4 | 18.9 |
| CCOC(=O)c1c2ccc(/C=C/c3ccccn3)ccc-2c(C(=O)OCC)c1N | > 100 | > 100 | > 100 |  | > 100 | > 100 | > 100 |  | > 100 |  |
| CCCCCCCC/C=C1\CCC(CN(C)C)C1=O (stereo not given) | 35.5 | 7.09 | 18.7 | 0.763 | 22 | 29.1 | 25.2 | 14.6 | 12 |  |
| CC(=O)OI1NC(=O)c2ccccc21 | > 100 | > 100 | > 100 | > 100 |  | > 100 | > 100 | > 100 | > 100 | > 100 |
| COc1ccc(C2c3cc4c(cc3OC(NNc3ccccc3)C2C)OCO4)cc1 (stereo not given) | > 100 | > 100 | 49.5 | > 100 | 4.79 |  | > 100 | 50.8 | > 100 | 44.7 |
| CC(C)C1CNC(=O)C2(C=NC(C(C)C)CNC(=O)C3(C=N1)CCCO3)CCCO2 (stereo not given) |  | > 10 | > 10 | > 10 | > 10 | > 10 |  | > 10 | > 10 | > 10 |
| CC1=C(c2nc3ccccc3s2)C(=O)OC1(C)C | > 100 | > 100 | > 100 | > 100 | > 100 | > 100 | > 100 | > 100 | > 100 |  |
| COCC(C)(C)N=CN1Cc2cc3ccccc3nc2C1 |  | > 100 | > 100 | > 100 |  | > 100 | > 100 | > 100 | > 100 |  |
| CCOC(=O)N/N=C(/N)c1cccc(Br)c1 | > 100 | > 100 | > 100 |  | > 100 | > 100 | > 100 | > 100 | > 100 | > 100 |
| CC1(C)OP(=O)(c2ccccc2)C=C1Sc1ccc([N+](=O)[O-])cc1[N+](=O)[O-] (stereo not given) | > 100 | > 100 | > 100 |  |  | > 100 |  | > 100 | > 100 | > 100 |
| Nc1nc2c(N)cc(C(F)(F)F)cc2nc1-c1ccccc1 | > 100 | > 100 | > 100 |  | > 100 | > 100 | > 100 | > 100 | > 100 |  |
| O=C1C(c2ccccc2)=C(c2ccccc2)C(c2ccc(Cc3ccc(C4=C(c5ccccc5)C(=O)C(c5ccccc5)=C4c4ccccc4)cc3)cc2)=C1c1ccccc1 | > 100 | > 100 |  | > 100 |  | > 100 | > 100 |  |  |  |
| O[C@]12C=C(c3nccc4c3[nH]c3ccccc34)[C@@H]3CCN(CCCC/C=C\CC1)C[C@@]31CC3/C=C\CCCCN3[C@H]12 (stereo not given in full) | 1.83 | 1.3 | 1.05 |  | 0.936 | > 25.1 | 0.463 | 2.84 | 0.896 | 1.83 |
| Clc1ccc(Cl)c(N=Nc2cc3c4c(c2)CCN4CCC3)c1 |  | > 10 | > 10 | > 10 | > 10 | > 10 | > 10 | > 10 | > 10 | > 10 |
| C=CCCC1(O)C(O)C(CO)O[C@H](O[C@@]2(CO)OC(CO)C(O)C2O)C1O (stereo not given in full) | > 100 | > 100 | > 100 | > 100 |  | > 100 |  | > 100 | > 100 | > 100 |
| Cc1cc2ncn(-c3nc4ccccc4nc3C(C#N)S(C)(=O)=O)c2cc1C (stereo not given) | > 100 | > 100 | > 100 | > 100 | > 100 | > 100 | > 100 | > 100 | > 100 |  |
| CC(C)N(C(=O)C12C3C4C1C1C2C3C41C#N)C(C)C (stereo not given) | > 100 | > 100 | > 100 | > 68.1 | > 100 | > 100 | > 100 | > 100 | > 100 |  |
| CCOC(=O)c1c[nH]c(C(=O)OCC)c1-c1cccn1-c1ccccc1 | > 100 | 24.6 | > 100 | 52.6 |  |  | 77.4 | 69.2 | 41.9 |  |
| CC(C)(C)N=CN1C=Cc2nc3ccccc3cc2C1 | > 100 | > 100 | > 100 |  | > 100 | > 100 | > 100 | > 100 | > 100 |  |
| O=C(O)c1nc2ccccc2nc1Nc1ccc(Cl)c(Cl)c1 | > 100 | 54 | > 100 | > 100 | 73.5 |  | 33.6 | > 100 | 82 |  |
| COC(=O)C(=O)C(C(=O)OC)C(=O)C(=O)Nc1c(C)cccc1C (stereo not given) | > 100 | > 100 | > 100 | > 100 | > 100 | > 100 | > 100 | > 100 | > 100 |  |
| CC(C)c1cccc(C(C)C)c1NC(=O)C(=O)Cc1nc2ccc([N+](=O)[O-])cc2[nH]c1=O | > 100 | 28.7 | > 100 |  | > 100 | > 100 | > 100 |  | > 100 |  |
| CC(C)(C)c1cc(CCC(=O)Nc2ccc(Cl)cc2)[nH]c(=S)n1 | > 100 | > 100 | > 100 | > 100 | > 100 | > 100 | > 100 | > 100 | > 100 |  |
